In patent publication US20210261636A1, “NEOANTIGENS EXPRESSED IN MULTIPLE MYELOMA AND THEIR USES” (Janssen Biotech, Inc., priority 2020, published 2021):

Legend:
[1] = tested on: CD8+ T cells; test: Exogenous autologous healthy donor restimulation assay, TNFα and IFNγ production by CD8+ T cells; type: cell-based, human; parameters: Frequency (TNFα+ IFNγ+ CD8 T cells): unit not given here; details: for Fold change (CD8+) vs. DMSO: maximum CD8+ T-cell response (TNFα and IFNγ); for Fold change (CD8+) vs. DMSO / Frequency (TNFα+ IFNγ+ CD8 T cells): donor independent, peptide pool 10 μg/mL, healthy donors; for Frequency (TNFα+ IFNγ+ CD8 T cells): maximum CD8+ T-cell response; for Immunogenic (yes/no): positive if CD8+ and/or CD4+ double positive TNFα/IFNγ frequency >=3-fold over DMSO and at least 0.01%
Description: (§1) Immunogenicity responses were measured by estimating TNFα IFNγ double positive cells in the CD4+ and/or CD8+ T-cell populations. A response is considered positive if TNFα IFNγ double positive fraction was greater than or equal to three-fold over unstimulated cells (DMSO negative control) with a minimum frequency >=0.01%. […]
(§2) Overlapping 15-mer peptides were designed to span each indicated neoantigen. Their ability to activate T cells was assessed using known methods, such as the assay defnied as exogenous autologous normal donor restimulation assay. The peptides were used as pools using TNFα and IFNγ production by CD8^+ and CD4^+ T cells as a readout. Maximum frequency of CD8^+TNFα^+IFNγ^+ and CD4^+TNFα^+IFNγ^+ T cells and maximum fold change over background for each pool of peptides were analyzed, which were calculated as the highest frequency of CD8^+ TNFα^+IFNγ^+ and CD4^+ TNFα^+IFNγ^+ T cells and resulting fold change across the normal donors evaluated for the peptide.
(§3) CD1c+Dendritic Cells (CD1c+DC) isolated from human healthy PBMCs were thawed using media (IMDM (Gibco) supplemented with glutamine, HEPES, 5% human serum (Sigma), and 1× Pen-Strep). DC cells were resuspended in media supplemented with IL-4 (Peprotech, 20 ng/mL) and GM-CSF (Gibco, 20 ng/mL), plated in 6 well microplates, and rested overnight at 37° C. and 5% CO2 incubator. The following day, DC cells were counted and plated in a 96 well round bottom microplate at a concentration of 30,000 viable cells per well. Lyophilized neoantigen peptide pools (15-mer peptides with 8-mer overlapping peptide sequences) were solubilized in 100% DMSO with a stock concentration of 20 mg/mL Neoantigen peptides pools were added to DCs for a final concentration of 10 μg/mL and rested for 2 hours at 37° C. and 5% CO2 incubator. CEF Peptide Pool “Plus” (Cellular Technologies, Ltd.) was utilized as a positive control (each viral peptide at a final concentration of 4 ug/ml) and DMSO at the same final concentration (0.05%) as the experimental peptides was utilized as a negative control. After 2 hours, DC cells were irradiated with 50 gray of ionizing radiation. Autologous CD3+ Pan-T cells isolated from human normal PBMCs were thawed using media. Following irradiation, autologous Pan-T cells were added to the irradiated DCs at 300,000 viable cells per well. Human IL-15 (Peprotech) was added to all wells at final concentration of 10 ng/ml. Plates were incubated at 37° C. and 5% CO2 incubator for a total of 12 days. Media was refreshed every 2-3 days with IL-15 (R&D System, 10 ng/mL final concentration) and IL-2 (R&D systems, 10 IU/mL final concentration).
(§4) On Day 11, cells were re-stimulated with identical experimental peptide pools or controls, at same concentration as peptide stimulation on Day 1. Protein Inhibitor Cocktail (eBioscience) was added to every well and plate was incubated overnight for 14-16 hours at 37° C. and 5% CO2 incubator. On Day 12, cells were stained for surface and intracellular flow cytometry analysis. The cells were washed with PBS and stained with Live/Dead Fixable Aqua Dead Cell stain (Thermo-Fisher). Following the live/dead stain, cells were blocked using Biotin-Free Fc Receptor Blocker (Accurate Chemical & Scientific Corp). Extracellular cellular flow panel (1 μL/antibody per well in 50 μL) consisted of CD3 PerCP-Cy5.5 (Biolegend), CD4 BV421 (Biolegend), and CD8 APC-Cy7 (Biolegend). After extracellular staining, cells were fixed and permeabilized using Foxp3/Transcription Factor Staining Buffer Set (eBioscience) and stained for intracellular proteins (1:50 dilution) using TNFα FITC (R&D Systems) and IFNγ BV785 (Biolegend). Cells were washed and resuspended in stain buffer, analyzed, and recorded in a BD Celesta flow cytometer.
(§5) Flow cytometry analysis was conducted on FlowJo v10.6 software. Cells were gated on live, singlet, CD3+, CD4+ and CD8+ T cells. The CD8+ and CD4+ T cells were analyzed for TNFα and IFNγ expression. […]

[2] = tested on: CD4+ T cells; test: Exogenous autologous healthy donor restimulation assay, TNFα and IFNγ production by CD4+ T cells; type: cell-based, human; parameters: Frequency (TNFα+ IFNγ+ CD4 T cells): unit not given here; details: donor independent, peptide pool 10 μg/mL, healthy donors; for Fold change (CD4+) vs. DMSO: maximum CD4+ T-cell response (TNFα and IFNγ); for Frequency (TNFα+ IFNγ+ CD4 T cells): maximum CD4+ T-cell response
Description: as §1, §2, §3, §4, §5

| Sequence | Fold change (CD8+) vs. DMSO [1] | Frequency (TNFα+ IFNγ+ CD8 T cells) [1] | Immunogenic (yes/no) [1] | Fold change (CD4+) vs. DMSO [2] | Frequency (TNFα+ IFNγ+ CD4 T cells) [2] |
| --- | --- | --- | --- | --- | --- |
| LRYLIHLRKWKIK [FUS55, gene fusion FAM214A-> ARPP19] | 13.57 | 0.38 | Yes | 74.67 | 0.056 |
| MDLTAIYEDSAGPLSHA [FUS54, gene fusion ZFP36-> PLEKHG2] | 15.176 | 2.58 | Yes | 9.66 | 0.063 |
| FGTSHMMVRHF [AS33, alternative splicing, CFAP54] | 47.27 | 0.49 | Yes | 2.78 | 0.009 |
| KRYGCVFQVSIRHLSFPVTDILP [AS77, alternative splicing, TRAF3] | 369.64 | 1.12 | Yes | 7.547 | 0.046 |
| WTRPEKQELNSSCCSLIL [AS120, alternative splicing, NCAM1] | 13.03 | 0.24 | Yes | 3.71 | 0.018 |
| LQAILQPGNFILVNEI [AS5, alternative splicing, C3orf79] | 4.64 | 0.068 | Yes | 19.14 | 0.14 |
| DVAVICSGRRSARDP [FUS4, gene fusion CD5L-> FCRL1] | 3.1 | 0.04 | No | 7.13 | 0.029 |
| QILQQALKKLPFSLCITECETIAYHLARDSNGNLEL [AS131, alternative splicing, USP25] | 299.44 | 0.53 | Yes | 10.53 | 0.008 |
| TSTSPKFPVFIFRLVCWVRTELVLR [AS47, alternative splicing, NRG3] | 53.5 | 0.25 | Yes | 1.907 | 0.011 |
| EGTPFEDGKSYSLCFL [AS78, alternative splicing, UBE2B] | 29.32 | 0.52 | Yes | 3.14 | 0.024 |
| SSLQEHRKLLS [AS52, alternative splicing, PRDM5] | 12.72 | 0.18 | Yes | 1.9 | 0.012 |
| CEIMPLQSYILL [AS37, alternative splicing, FAM13A] | 17.37 | 0.32 | Yes | 576.132 | 0.21 |
| LGRLEEAKSFETEEN [AS121, alternative splicing, OGT] | 194.72 | 0.59 | Yes | 1.41 | 0.02 |
| GEKILFIRVKFYFSLILFLWEDSEFELGEI [AS9, alternative splicing, GAS2] | 358.4 | 1.99 | Yes | 20.874 | 0.099 |
| WLLRTWERADSGL [AS123, alternative splicing, PCNX3] | 5.371 | 0.046 | No | 2.25 | 0.05 |
| GTTRLLSGEDFS [AS111, alternative splicing, CD55] | 1.16 | 0.012 | Yes | 16.71 | 0.06 |
| KKEDVNFQVKQLIH [AS96, alternative splicing, ANKRD28] | 7.34 | 0.15 | Yes | 5.47 | 0.027 |
| LLPPGQESAIIGPPGMQ [FUS45, gene fusion IFNAR2-> IL10RB] | 88.8 | 0.43 | Yes | 10.56 | 0.1 |
| SRAPIKMSVLGQGHSRCLLHCLCLVAPMAFPVRLRVPCGG [AS16, alternative splicing, CAMSAP1] | 8200 | 0.82 | Yes | 15.062 | 0.011 |
| QIRVPSYSDEG [AS114, alternative splicing, CNTN5] | 7.6 | 0.14 | Yes | 2.05 | 0.02 |
| CRERGLQEAEGDVAAL [FUS40, gene fusion KLF2-> TPM4] | 18.3 | 0.43 | Yes | 1.26 | 0.024 |
